Measured values published in the COVID Moonshot data (paper PMC11187573), “Identification of SARS-CoV-2 Mpro inhibitors through deep reinforcement learning for de novo drug design and computational chemistry approaches” (RSC Medicinal Chemistry, 2024).

Tests used:
[1] = molecular target: SARS-CoV-2 Main Protease (SARS-CoV-2) (UniProt P0DTD1)
[2] = molecular target: SARS-CoV-2 Main Protease (SARS-CoV-2) (UniProt P0DTD1); remark: listed apart in the source

CC(=O)N[C@@H](C)C(=O)Nc1cnccc1C (stereo in doubt)
inhibition ([1]; 50.0 µM): -0.127%
relative solubility at 20 uM: 1
relative solubility at 100 uM: 1
inhibition ([2]; 20.0 µM): -12.3%
inhibition ([2]; 50.0 µM): -7.91%

Cc1cnc(CC(=O)Nc2cccnc2)o1
inhibition ([1]; 20.0 µM): 0%
inhibition ([1]; 50.0 µM): 0%
relative solubility at 20 uM: 0.99
relative solubility at 100 uM: 1
inhibition ([2]; 50.0 µM): -9.91%

NC(=O)C1CCN(c2nnc(C3CCC(=O)N3)n2CCc2cc(F)cc(F)c2)CC1 (centres undefined)
inhibition ([1]; 50.0 µM): 0%
relative solubility at 20 uM: 1
relative solubility at 100 uM: 1
inhibition ([2]; 20.0 µM): 1.27%
inhibition ([2]; 50.0 µM): 3.83%

C=CC(=O)N(c1ccc(C(F)(F)F)cc1)C(C(=O)Nc1ccc(OC)cc1C)c1cccnc1 (centres undefined)
inhibition ([1]; 20.0 µM): 11%
relative solubility at 20 uM: 0.95
relative solubility at 100 uM: 0.62
inhibition ([2]; 20.0 µM): 7.06%
inhibition ([2]; 50.0 µM): 25.4%

O=C(Nc1cccc(C(=O)N2CCSCC2)c1)C(F)Cl (centres undefined)
inhibition ([1]; 20.0 µM): 0%
inhibition ([1]; 50.0 µM): 0%
relative solubility at 20 uM: 1
relative solubility at 100 uM: 1
inhibition ([2]; 20.0 µM): -13.8%
inhibition ([2]; 50.0 µM): -16.9%

NS(=O)(=O)c1ccc(N2CCC(N3CCCCC3)CC2)cc1
inhibition ([1]; 20.0 µM): 0%
inhibition ([1]; 50.0 µM): 0%
relative solubility at 20 uM: 1
relative solubility at 100 uM: 1
inhibition ([2]; 50.0 µM): 7.79%

O=C(CCc1cnn[nH]1)NC(Cn1cccn1)c1ccccc1 (centres undefined)
inhibition ([1]; 20.0 µM): 0%
inhibition ([1]; 50.0 µM): 0%
relative solubility at 20 uM: 1
relative solubility at 100 uM: 1
inhibition ([2]; 20.0 µM): -1.52%
inhibition ([2]; 50.0 µM): -1.11%

Cc1ccncc1NC(=O)Nc1cccc(C#N)c1
IC50 [1]: 49.3 µM
inhibition ([1]; 20.0 µM): 23.8%
inhibition ([1]; 50.0 µM): 55.7%
relative solubility at 20 uM: 1
relative solubility at 100 uM: 0.97
inhibition ([2]; 20.0 µM): 19.4%
inhibition ([2]; 50.0 µM): 44.3%

C=CC(=O)N(c1ccc(C(C)(C)C)cc1)C(C(=O)NC(C)(C)C)c1cncc(Cl)c1 (centres undefined)
inhibition ([1]; 20.0 µM): 0%
inhibition ([1]; 50.0 µM): 13.5%
relative solubility at 20 uM: 0.99
relative solubility at 100 uM: 0.86
inhibition ([2]; 20.0 µM): 34.6%
inhibition ([2]; 50.0 µM): 19.6%

CCC(NC(=O)NCc1cnccn1)c1ccccc1OCC(=O)N1CCCC1 (centres undefined)
inhibition ([1]; 20.0 µM): 0%
inhibition ([1]; 50.0 µM): 9.2%
relative solubility at 20 uM: 1
relative solubility at 100 uM: 1
inhibition ([2]; 50.0 µM): 7.61%

C=CC(=O)N(c1ccc(C(C)(C)C)cc1)C(C(=O)NC(C)(C)C)c1cncc(C(C)(F)F)c1 (centres undefined)
inhibition ([1]; 20.0 µM): 0%
inhibition ([1]; 50.0 µM): 0%
relative solubility at 20 uM: 0.99
relative solubility at 100 uM: 0.96
inhibition ([2]; 20.0 µM): -11.5%
inhibition ([2]; 50.0 µM): -15.5%

O=C(Cc1cncnc1)Nc1cc(F)cc(OC2CC(=O)N2)c1 (centres undefined)
inhibition ([1]; 50.0 µM): 45.7%
relative solubility at 20 uM: 0.99
relative solubility at 100 uM: 0.99
inhibition ([2]; 20.0 µM): 52.8%
inhibition ([2]; 50.0 µM): 87.8%

CCCSCC(=O)C(C#N)C(=O)Nc1ccccc1F (centres undefined)
inhibition ([1]; 20.0 µM): 0.68%
inhibition ([1]; 50.0 µM): 2.12%
relative solubility at 20 uM: 1
relative solubility at 100 uM: 1
inhibition ([2]; 50.0 µM): -9.47%

CC(C(=O)O)c1ccc2c(c1)[nH]c1ccc(Cl)cc12 (centres undefined)
inhibition ([1]; 20.0 µM): 0%
relative solubility at 20 uM: 1
relative solubility at 100 uM: 0.98
inhibition ([2]; 20.0 µM): -0.548%
inhibition ([2]; 50.0 µM): 3.97%

N#Cc1cccc(NC(=O)Cc2c[nH]c3ncccc23)c1
inhibition ([1]; 20.0 µM): 0%
relative solubility at 20 uM: 1
relative solubility at 100 uM: 0.95
inhibition ([2]; 20.0 µM): 2.74%
inhibition ([2]; 50.0 µM): 2.91%

CCn1c(=O)n(CC(=O)NCc2cnccn2)c2ccccc21
inhibition ([1]; 20.0 µM): 0%
inhibition ([1]; 50.0 µM): 0%
relative solubility at 20 uM: 1
relative solubility at 100 uM: 1
inhibition ([2]; 20.0 µM): 1.73%
inhibition ([2]; 50.0 µM): 6.74%

C=CC(=O)N(C1CCCC(C(C)C)CC1)C(C(=O)NC(C)(C)C)c1cccnc1 (centres undefined)
inhibition ([1]; 20.0 µM): 0%
relative solubility at 20 uM: 0.99
relative solubility at 100 uM: 0.95
inhibition ([2]; 20.0 µM): -1.08%
inhibition ([2]; 50.0 µM): 8.24%

C=CC(=O)N(c1ccc(C(C)(C)C)cc1)C(C(=O)NCCc1cccc(F)c1)c1cccnc1 (centres undefined)
IC50 [1]: 3.36 µM
inhibition ([1]; 20.0 µM): 91.8%
inhibition ([1]; 50.0 µM): 100%
relative solubility at 20 uM: 0.98
relative solubility at 100 uM: 0.55
inhibition ([2]; 20.0 µM): 63.3%
inhibition ([2]; 50.0 µM): 83.4%

O=C(Cc1c[nH]c2ncccc12)NCc1cccc(Cl)c1
inhibition ([1]; 20.0 µM): 1.98%
relative solubility at 20 uM: 1
relative solubility at 100 uM: 0.96
inhibition ([2]; 20.0 µM): 7.73%
inhibition ([2]; 50.0 µM): 9.03%

COc1ccc(C2CC(c3cccs3)=NN2C(=O)CCl)cc1OC (centres undefined)
IC50 [1]: 0.969 µM
inhibition ([1]; 20.0 µM): 95.7%
inhibition ([1]; 50.0 µM): 91.1%
relative solubility at 20 uM: 0.95
relative solubility at 100 uM: 0.83
inhibition ([2]; 20.0 µM): 99.4%
inhibition ([2]; 50.0 µM): 99.2%

Nc1nnnn1-c1cccc(C(=O)Nc2c(-c3cccnc3)nc3ccccn23)c1
inhibition ([1]; 20.0 µM): 11%
inhibition ([1]; 50.0 µM): 18.3%
relative solubility at 20 uM: 0.98
relative solubility at 100 uM: 0.79
inhibition ([2]; 20.0 µM): -2.5%
inhibition ([2]; 50.0 µM): 2.69%

Cc1ccncc1NC(=O)[C@@H]1C[C@H]1CF (stereo in doubt)
inhibition ([1]; 50.0 µM): 3.35%
relative solubility at 20 uM: 1
relative solubility at 100 uM: 1
inhibition ([2]; 20.0 µM): 4.1%
inhibition ([2]; 50.0 µM): 3.57%

Cc1ccc(NC(=O)Cc2cc3cccnc3[nH]2)s1
inhibition ([1]; 50.0 µM): 7.42%
relative solubility at 20 uM: 1
relative solubility at 100 uM: 0.96
inhibition ([2]; 20.0 µM): 23.7%
inhibition ([2]; 50.0 µM): 8.28%

NS(=O)(=O)c1ccc(N2CCSCC2)cc1
inhibition ([1]; 20.0 µM): 29.1%
inhibition ([1]; 50.0 µM): 48.2%
relative solubility at 20 uM: 1
relative solubility at 100 uM: 1
inhibition ([2]; 50.0 µM): -25.9%

CC(C)CCNC(=O)C(CC(C)C)NC(=O)C1OC1C(=O)O (centres undefined)
inhibition ([1]; 50.0 µM): 0%
relative solubility at 20 uM: 1
relative solubility at 100 uM: 1
inhibition ([2]; 20.0 µM): 0.736%
inhibition ([2]; 50.0 µM): -2.95%

O=C(Cc1cccc(Cl)c1)Nc1cnccn1
inhibition ([1]; 50.0 µM): 0%
relative solubility at 20 uM: 1.01
relative solubility at 100 uM: 1
inhibition ([2]; 20.0 µM): 3.71%
inhibition ([2]; 50.0 µM): 13.3%

O=C(Cn1nnc2ccccc21)NCc1ccc(Oc2cccnc2)c(F)c1
inhibition ([1]; 20.0 µM): 0%
relative solubility at 20 uM: 0.99
relative solubility at 100 uM: 0.99
inhibition ([2]; 20.0 µM): -21.1%
inhibition ([2]; 50.0 µM): -19.3%

C=CC(=O)N(c1ccc(C(C)(C)C)cc1)C(C(=O)NCC1CCOC1)c1cccnc1 (centres undefined)
inhibition ([1]; 20.0 µM): 1.1%
inhibition ([1]; 50.0 µM): 29.4%
relative solubility at 20 uM: 1
relative solubility at 100 uM: 0.99
inhibition ([2]; 20.0 µM): 25.7%
inhibition ([2]; 50.0 µM): 41.3%

Cc1ccncc1NC(=O)C(C)CC1CC1 (centres undefined)
inhibition ([1]; 50.0 µM): 0%
relative solubility at 20 uM: 1
relative solubility at 100 uM: 1
inhibition ([2]; 20.0 µM): -2.37%
inhibition ([2]; 50.0 µM): 2.12%

C=CC(=O)N(c1ccc(C(C)(C)C)cc1)C(C(=O)Nc1ccc(F)cc1)c1cccnc1 (centres undefined)
inhibition ([1]; 20.0 µM): 8.55%
inhibition ([1]; 50.0 µM): 31.9%
relative solubility at 20 uM: 0.98
relative solubility at 100 uM: 0.86
inhibition ([2]; 20.0 µM): 17%
inhibition ([2]; 50.0 µM): 36%
